Measurements: US9855268B2, “Triazolo[4,5-d]pyrimidine derivatives” (Merck Patent GmbH, priority 2013, dated 2018)
Counter-ions that a name gives are not always drawn.

molecular target: GCN2 (Homo sapiens, UniProt Q9P2K8); assay: GCN2 enzyme assay (TR-FRET Lanthascreen, GFP-eIF2alpha phosphorylation); format: biochemical; conditions: 10 μM ATP, 80 nM GFP-eIF2a, 30 nM GCN2
Excerpt: GCN2: Assay Principle & Conditions
This assay can quantificate the activity of the serin kinase GCN2 (general control non-derepressible-2).
This kinase is involved in the stress metabolism of cells. It is activated upon starvation (amino acid depletion). Its natural substrate is eIF2a (eukaryotic initiation factor 2 alpha subunit), a translation factor, which gets activated (phosphorylated) by GCN2 in case of an amino acid bottleneck in the cells. This in turn leads to a halt of the protein synthesis. Inhibition of GCN2 results in stopping this mechanism: The cell can not stop protein production upon “starvation” stress.
The assay is run in two steps: the enzymatic reaction and the detection step. In the first step GCN2 is incubated with 10 μM ATP and 80 nM of the GFP-labelled substrate eIF2alpha at room temperature.
The enzymatic reaction is stopped by addition of EDTA. The amount of phosphorylated eIF2alpha is determined by TR-FRET (Lanthascreen): A complex is formed consisting of antibody and GFP labelled phospho-eIF2a, which allows a FRET upon exitation at 340 nm.
Final Concentrations in the Enzymatic Reaction

Sequence of GCN2 (Q9P2K8 whole entry, species assumed): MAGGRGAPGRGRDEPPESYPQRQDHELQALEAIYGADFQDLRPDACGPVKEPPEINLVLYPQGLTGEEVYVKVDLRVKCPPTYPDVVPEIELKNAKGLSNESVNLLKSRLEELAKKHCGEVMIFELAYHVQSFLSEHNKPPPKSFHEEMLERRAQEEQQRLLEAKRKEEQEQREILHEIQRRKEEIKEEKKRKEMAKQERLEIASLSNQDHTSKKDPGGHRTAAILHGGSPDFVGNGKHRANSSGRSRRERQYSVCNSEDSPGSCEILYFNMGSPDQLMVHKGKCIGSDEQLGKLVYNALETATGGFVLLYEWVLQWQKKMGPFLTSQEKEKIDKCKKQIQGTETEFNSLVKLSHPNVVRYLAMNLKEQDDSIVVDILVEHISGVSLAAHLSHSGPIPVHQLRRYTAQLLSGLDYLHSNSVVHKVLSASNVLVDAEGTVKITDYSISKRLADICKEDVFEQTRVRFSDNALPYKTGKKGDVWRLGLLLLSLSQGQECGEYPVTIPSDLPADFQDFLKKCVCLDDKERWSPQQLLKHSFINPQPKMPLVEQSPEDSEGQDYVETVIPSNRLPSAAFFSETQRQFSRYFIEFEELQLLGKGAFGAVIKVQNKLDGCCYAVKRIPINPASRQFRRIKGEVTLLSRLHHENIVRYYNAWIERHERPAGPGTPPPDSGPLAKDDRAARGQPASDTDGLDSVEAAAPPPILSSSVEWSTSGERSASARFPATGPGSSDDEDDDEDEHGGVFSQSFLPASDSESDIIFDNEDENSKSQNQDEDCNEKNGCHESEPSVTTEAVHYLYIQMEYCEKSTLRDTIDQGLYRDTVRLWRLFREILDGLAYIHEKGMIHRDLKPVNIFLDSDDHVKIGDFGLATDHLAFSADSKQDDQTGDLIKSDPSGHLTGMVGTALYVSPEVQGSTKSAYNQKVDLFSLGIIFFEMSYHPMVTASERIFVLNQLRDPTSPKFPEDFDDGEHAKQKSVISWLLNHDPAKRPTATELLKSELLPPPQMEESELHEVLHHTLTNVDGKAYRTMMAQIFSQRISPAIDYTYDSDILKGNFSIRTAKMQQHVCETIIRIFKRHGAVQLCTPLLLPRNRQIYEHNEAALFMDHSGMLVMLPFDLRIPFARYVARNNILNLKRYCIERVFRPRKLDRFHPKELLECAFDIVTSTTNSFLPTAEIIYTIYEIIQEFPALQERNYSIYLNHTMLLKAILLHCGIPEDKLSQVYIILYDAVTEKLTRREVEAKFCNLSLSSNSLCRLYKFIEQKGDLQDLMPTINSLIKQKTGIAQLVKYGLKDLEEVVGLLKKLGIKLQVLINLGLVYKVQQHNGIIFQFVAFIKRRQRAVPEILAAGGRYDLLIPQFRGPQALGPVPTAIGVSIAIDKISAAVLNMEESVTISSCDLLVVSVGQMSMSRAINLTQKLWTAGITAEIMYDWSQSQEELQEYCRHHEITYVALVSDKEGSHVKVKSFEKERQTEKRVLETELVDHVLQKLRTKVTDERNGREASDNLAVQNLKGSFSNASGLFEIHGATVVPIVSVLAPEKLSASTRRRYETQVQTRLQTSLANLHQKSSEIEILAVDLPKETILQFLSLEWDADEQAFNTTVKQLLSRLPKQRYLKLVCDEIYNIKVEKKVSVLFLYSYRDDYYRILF

Row | Compound | IC50
1 | COc1ccc(-n2nnc3cnc(NC4CCN(CCN5CCOCC5)CC4)nc32)cc1 [A78, [3-(4-methoxy-phenyl)-3H-[1,2,3]triazolo[4,5-d]pyrimidin-5-yl]-[1-(2-morpholin-4-yl-ethyl)-piperidin-4-yl]-amine] | 1000 to 5000 nM
2 | COc1ccc(-n2nnc3cnc(N[C@H]4C[C@H](NC(=O)OC(C)(C)C)C4)nc32)cc1 [A32, {trans-3-[3-(4-methoxy-phenyl)-3H-[1,2,3]triazolo[4,5-d]pyrimidin-5-ylamino]-cyclobutyl}-carbamic acid tert-butyl ester] | < 1000 nM
3 | COc1ccc(-n2nnc3cnc(NC4CCN(CCN5CCCC5)CC4)nc32)cc1 [A86, [3-(4-methoxy-phenyl)-3H-[1,2,3]triazolo[4,5-d]pyrimidin-5-yl]-[1-(2-pyrrolidin-1-yl-ethyl)-piperidin-4-yl]-amine] | < 1000 nM
4 | COc1ccc(-n2nnc3cnc(NC4CCC4)nc32)cc1 [A21, cyclobutyl-[3-(4-methoxy-phenyl)-3H-[1,2,3]triazolo[4,5-d]pyrimidin-5-yl]-amine] | < 1000 nM
5 | COc1ccc(-n2nnc3cnc(N[C@@H]4CC[C@H](C(=O)O)C4)nc32)cc1 [A79, (1S,3R)-3-[3-(4-methoxy-phenyl)-3H-[1,2,3]triazolo[4,5-d]pyrimidin-5-ylamino]-cyclopentanecarboxylic acid] | < 1000 nM
6 | CNc1ncc2nnn(-c3ccc(OC)cc3)c2n1 [A14, [3-(4-methoxy-phenyl)-3H-[1,2,3]triazolo[4,5-d]pyrimidin-5-yl]-methyl-amine] | 1000 to 5000 nM
7 | Cn1cc(CNc2ncc3nnn(-c4ccc(Cl)c(F)c4)c3n2)cn1 [B4, [3-(4-chloro-3-fluoro-phenyl)-3H-[1,2,3]triazolo[4,5-d]pyrimidin-5-yl]-(1-methyl-1H-pyrazol-4-ylmethyl)-amine] | 1000 to 5000 nM
8 | COc1ccc(-n2nnc3cnc(NC4CCN(C)CC4)nc32)cc1 [A18, [3-(4-methoxy-phenyl)-3H-[1,2,3]triazolo[4,5-d]pyrimidin-5-yl]-(1-methyl-piperidin-4-yl)-amine] | 1000 to 5000 nM
9 | COc1ccc(-n2nnc3cnc(NC4CN(C(=O)CN(C)C)C4)nc32)cc1 [A62, 2-dimethylamino-1-{3-[3-(4-methoxy-phenyl)-3H-[1,2,3]triazolo[4,5-d]pyrimidin-5-ylamino]-azetidin-1-yl}-ethanone] | 1000 to 5000 nM
10 | COc1ccc(-n2nnc3cnc(N[C@@H]4CCNC4)nc32)cc1 [A69, [3-(4-methoxy-phenyl)-3H-[1,2,3]triazolo[4,5-d]pyrimidin-5-yl]-(R)-pyrrolidin-3-yl-amine hydrochloride] | 1000 to 5000 nM
11 | COc1ccc(-n2nnc3cnc(N[C@H]4C[C@@H](N)C4)nc32)cc1 [A31, cis-N-[3-(4-methoxy-phenyl)-3H-[1,2,3]triazolo[4,5-d]pyrimidin-5-yl]-cyclobutane-1,3-diamine hydrochloride] | 1000 to 5000 nM
12 | COc1ccc(-n2nnc3cnc(N[C@H]4CC[C@H](CNC(=O)OC(C)(C)C)CC4)nc32)cc1 [A33, {4-[3-(4-methoxy-phenyl)-3H-[1,2,3]triazolo[4,5-d]pyrimidin-5-ylamino]-cyclohexylmethyl}-carbamic acid tert-butyl ester] | 1000 to 5000 nM
13 | COc1ccc(-n2nnc3cnc(NC4CC(C)(C)NC(C)(C)C4)nc32)cc1 [A17, [3-(4-methoxy-phenyl)-3H-[1,2,3]triazolo[4,5-d]pyrimidin-5-yl]-(2,2,6,6-tetramethyl-piperidin-4-yl)-amine] | 5000 to 10000 nM
14 | COc1ccc(-n2nnc3cnc(N[C@H]4CC[C@@H](O)C4)nc32)cc1 (relative stereo) [A27, cis-3-[3-(4-methoxy-phenyl)-3H-[1,2,3]triazolo[4,5-d]pyrimidin-5-ylamino]-cyclopentanol] | 1000 to 5000 nM

Second part, the compound after the results:

Row | IC50 | Compound
15 | < 1000 nM | N[C@H]1CC[C@H](Nc2ncc3nnn(-c4ccc(OCCN5CCOCC5)cc4)c3n2)CC1 [A95, trans-N-{3-[4-(2-morpholin-4-yl-ethoxy)-phenyl]-3H-[1,2,3]triazolo[4,5-d]pyrimidin-5-yl}-cyclohexane-1,4-diamine]
16 | 5000 to 10000 nM | COc1ccc(-n2nnc3cnc(N[C@H]4CCN(C(=O)OC(C)(C)C)C4)nc32)cc1 [A66, (S)-3-[3-(4-methoxy-phenyl)-3H-[1,2,3]triazolo[4,5-d]pyrimidin-5-ylamino]-pyrrolidine-1-carboxylic acid tert-butyl ester]
17 | < 1000 nM | O=C(O)[C@H]1CC[C@@H](Nc2ncc3nnn(-c4ccc5ncccc5c4)c3n2)C1 [A188, (1S,3R)-3-(3-quinolin-6-yl-3H-[1,2,3]triazolo[4,5-d]pyrimidin-5-ylamino)-cyclopentanecarboxylic acid]
18 | < 1000 nM | COc1ccc(-n2nnc3cnc(N[C@@H]4CC[C@H](C(=O)N5CCN(C)CC5)C4)nc32)cc1 [A97, {(1S,3R)-3-[3-(4-methoxy-phenyl)-3H-[1,2,3]triazolo[4,5-d]pyrimidin-5-ylamino]-cyclopentyl}-(4-methyl-piperazin-1-yl)-methanone]
19 | 1000 to 5000 nM | N[C@H]1CC[C@H](Nc2ncc3nnn(-c4ccc(N5CCOCC5)cn4)c3n2)CC1 [A96, trans-N-[3-(5-morpholin-4-yl-pyridin-2-yl)-3H-[1,2,3]triazolo[4,5-d]pyrimidin-5-yl]-cyclohexane-1,4-diamine]
20 | < 1000 nM | NC(=O)[C@H]1CC[C@@H](Nc2ncc3nnn(-c4ccc(I)cc4)c3n2)C1 [A171, (1S,3R)-3-[3-(4-iodo-phenyl)-3H-[1,2,3]triazolo[4,5-d]pyrimidin-5-ylamino]-cyclopentanecarboxylic acid amide]
21 | < 1000 nM | COc1ccc(-n2nnc3cnc(N[C@H]4CCOC4)nc32)cc1 [A28, [3-(4-methoxy-phenyl)-3H-[1,2,3]triazolo[4,5-d]pyrimidin-5-yl]-(S)-tetrahydrofuran-3-yl-amine]
22 | < 1000 nM | CCOc1ccc(-n2nnc3cnc(N[C@@H]4CC[C@@H](O)C4)nc32)cn1 (relative stereo) [A206, (trans)-3-[3-(6-ethoxy-pyridin-3-yl)-3H-[1,2,3]triazolo[4,5-d]pyrimidin-5-ylamino]-cyclopentanol]
23 | < 1000 nM | CCn1cc(-c2ccc(-n3nnc4cnc(N[C@H]5CC[C@H](N)CC5)nc43)cc2)cn1 [A54, N-{3-[4-(1-ethyl-1H-pyrazol-4-yl)-phenyl]-3H-[1,2,3]triazolo[4,5-d]pyrimidin-5-yl}-(trans)-cyclohexane-1,4-diamine trifluoroacetate]
24 | < 1000 nM | Cn1cc(-c2ccc(-n3nnc4cnc(N[C@H]5CC[C@H](O)C5)nc43)nc2)cn1 (relative stereo) [A94, trans-3-{3-[5-(1-methyl-1H-pyrazol-4-yl)-pyridin-2-yl]-3H-[1,2,3]triazolo[4,5-d]pyrimidin-5-ylamino}-cyclopentanol]
25 | < 1000 nM | COc1ccc(-n2nnc3cnc(NC4CCS(=O)(=O)C4)nc32)cc1 (centres unmarked) [A8, N-(1,1-dioxothiolan-3-yl)-3-(4-methoxyphenyl)triazolo[4,5-d]pyrimidin-5-amine]
26 | < 1000 nM | COc1ccc(-n2nnc3cnc(N[C@H]4C[C@@H](O)C4)nc32)cc1 [A25, cis-3-[3-(4-methoxy-phenyl)-3H-[1,2,3]triazolo[4,5-d]pyrimidin-5-ylamino]-cyclobutanol]
27 | < 1000 nM | COc1ccc(-n2nnc3cnc(N[C@@H]4CC[C@H](C#N)C4)nc32)cc1 (relative stereo) [A275, cis-3-[3-(4-Methoxy-phenyl)-3H-[1,2,3]triazolo[4,5-d]pyrimidin-5-ylamino]-cyclopentanecarbonitrile]
28 | 5000 to 10000 nM | COc1ccc(-n2nnc3cnc(NC4CC(C)(C)N(C)C(C)(C)C4)nc32)cc1 [A15, [3-(4-methoxy-phenyl)-3H-[1,2,3]triazolo[4,5-d]pyrimidin-5-yl]-(1,2,2,6,6-pentamethyl-piperidin-4-yl)-amine]
29 | < 1000 nM | COc1ccc(-n2nnc3cnc(NC4CCCC4)nc32)cc1 [A12, cyclopentyl-[3-(4-methoxy-phenyl)-3H-[1,2,3]triazolo[4,5-d]pyrimidin-5-yl]-amine]
30 | < 1000 nM | COc1ccc(-n2nnc3cnc(NC4CN(C(=O)CCN(C)C)C4)nc32)cc1 [A63, 3-dimethylamino-1-{3-[3-(4-methoxy-phenyl)-3H-[1,2,3]triazolo[4,5-d]pyrimidin-5-ylamino]-azetidin-1-yl}-propan-1-one]
31 | < 1000 nM | COc1ccc(-n2nnc3cnc(N[C@@H]4CC[C@H](c5ncc(C)o5)C4)nc32)cc1 [A267, [3-(4-methoxy-phenyl)-3H-[1,2,3]triazolo[4,5-d]pyrimidin-5-yl]-[(1R,3S)-3-(5-methyl-oxazol-2-yl)-cyclopentyl]-amine]
32 | < 1000 nM | Cc1ccc2cc(-n3nnc4cnc(N[C@@H]5CCNC5)nc43)ccc2n1 [A126, [3-(2-methyl-quinolin-6-yl)-3H-[1,2,3]triazolo[4,5-d]pyrimidin-5-yl]-(R)-pyrrolidin-3-yl-amine]
33 | < 1000 nM | COc1ccc(-n2nnc3cnc(NC4CCN(C(=O)CN(C)C)CC4)nc32)cc1 [A48, 2-dimethylamino-1-{4-[3-(4-methoxy-phenyl)-3H-[1,2,3]triazolo-[4,5-d]pyrimidin-5-ylamino]-piperidin-1-yl}-ethanone]
34 | < 1000 nM | COc1ccc(-n2nnc3cnc(N[C@@H]4CC[C@@H](O)C4)nc32)cc1 (racemic) [A10, trans-3-[3-(4-methoxy-phenyl)-3H-[1,2,3]triazolo[4,5-d]pyrimidin-5-ylamino]-cyclopentanol]
35 | < 1000 nM | Cc1ccc2cc(-n3nnc4cnc(N[C@@H]5CCN(C(N)=O)C5)nc43)ccc2n1 [A284, (R)-3-[3-(2-methyl-quinolin-6-yl)-3H-[1,2,3]triazolo[4,5-d]pyrimidin-5-ylamino]-pyrrolidine-1-carboxylic acid amide]
